The target of test [1] is T1, EGFR L858R/T790M (Homo sapiens, UniProt P00533, L858R/T790M).
T1 construct: purchased Carna Bio
In words: Inhibition of EGFR L858R/T790M biochemical enzymatic activity (HTRF). To be noted: EGFR L858R-T790M, 1 mM ATP, 1 h, room temperature, read-out: IC50 (nM) @L858R-T790M. Summed up: (§1)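 In a buffer with 5 mM MgCl2, 1 mM MnCl2, 1 mM DTT and 0.01% CHAPS, enzyme turnover of 1 μM biotinylated TK substrate at 1 mM ATP is followed by HTRF after 1 h at room temperature. IC50 is obtained by a four-parameter fit.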

For test [2], the system named is PC-9. In words: Cell proliferation assay, PC-9 cells (CellTiter-Glo, 72 hours). The class given is cell-based. To be noted: Homo sapiens, PC-9, 72 h, PC9 cells, CellTiter-Glo, read-out: PC9 GI50. The gist of the method:
(§2)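 Luminescent viable-cell counts were taken on a day 0 plate at dosing and again at endpoint. Proliferation was calculated as (sample − G0)/(DMSO − G0). Seeding was 5000 Ba/F3 or 500 PC-9 cells per well in RPMI1640, followed by overnight attachment and serial compound dilutions. The GI50 was fitted.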

Test [3] concerns the target T2, EGFR Exon19Del/T790M (Homo sapiens, UniProt P00533, DEL746-750/T790M).
T2 construct: purchased Carna Bio
In words: Inhibition of EGFR Exon19Del/T790M biochemical enzymatic activity (HTRF). To be noted: EGFR Del19-T790M, 1 mM ATP, 1 h, room temperature, read-out: IC50 (nM) @Del19-T790M. The gist of the method: as §1

Test [4] relates to A-431. In words: Cell proliferation GI50, A-431 cells (Table 6). The class given is cell-based. The conditions noted are these: Homo sapiens, A-431, A-431 cells.
For test [5], the target named is T3, EGFR (C797S L858R) (Homo sapiens, UniProt P00533, C797S/L858R).
T3 construct: purchased signalchem
T3 sequence (P00533 25-1210 C797S/L858R): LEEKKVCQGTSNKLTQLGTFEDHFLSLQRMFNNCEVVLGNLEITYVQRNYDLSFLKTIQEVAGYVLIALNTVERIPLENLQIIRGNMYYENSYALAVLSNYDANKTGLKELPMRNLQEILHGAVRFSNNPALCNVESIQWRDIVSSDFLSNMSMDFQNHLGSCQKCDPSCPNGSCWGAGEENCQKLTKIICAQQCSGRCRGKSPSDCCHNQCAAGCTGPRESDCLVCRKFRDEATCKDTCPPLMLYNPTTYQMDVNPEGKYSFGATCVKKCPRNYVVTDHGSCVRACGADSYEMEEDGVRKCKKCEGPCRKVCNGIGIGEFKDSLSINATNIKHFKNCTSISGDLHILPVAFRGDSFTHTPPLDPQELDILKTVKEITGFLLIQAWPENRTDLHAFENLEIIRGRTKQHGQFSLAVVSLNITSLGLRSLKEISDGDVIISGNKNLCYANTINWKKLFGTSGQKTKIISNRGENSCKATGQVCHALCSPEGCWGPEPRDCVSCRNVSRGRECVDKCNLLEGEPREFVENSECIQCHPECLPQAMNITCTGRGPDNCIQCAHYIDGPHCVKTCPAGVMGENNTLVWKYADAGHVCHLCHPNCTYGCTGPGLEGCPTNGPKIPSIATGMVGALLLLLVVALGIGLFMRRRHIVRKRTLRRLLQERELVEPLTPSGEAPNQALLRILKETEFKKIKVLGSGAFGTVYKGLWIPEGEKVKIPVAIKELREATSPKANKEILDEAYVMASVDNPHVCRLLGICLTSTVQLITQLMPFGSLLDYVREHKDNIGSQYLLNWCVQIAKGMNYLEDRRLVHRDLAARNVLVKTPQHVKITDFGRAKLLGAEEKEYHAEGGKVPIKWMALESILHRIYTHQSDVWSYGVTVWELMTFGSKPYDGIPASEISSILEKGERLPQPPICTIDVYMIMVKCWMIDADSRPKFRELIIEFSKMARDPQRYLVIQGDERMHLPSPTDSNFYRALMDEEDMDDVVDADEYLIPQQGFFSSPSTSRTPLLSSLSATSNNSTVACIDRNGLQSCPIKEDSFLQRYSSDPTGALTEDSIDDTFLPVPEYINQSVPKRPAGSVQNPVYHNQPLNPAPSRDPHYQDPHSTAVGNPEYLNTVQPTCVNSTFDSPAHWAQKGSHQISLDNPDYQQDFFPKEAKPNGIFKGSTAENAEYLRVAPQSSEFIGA
In words: Inhibition of EGFR (C797S L858R) biochemical enzymatic activity (HTRF). To be noted: EGFR L858-C797S, 1 mM ATP, 1 h, room temperature, read-out: IC50 (nM) @L858-C797S. Summed up: as §1

Test [6] concerns the target T4, EGFR[T790M/C797S/d746-750] (Homo sapiens, UniProt P00533, C797S/DEL746-750/T790M).
T4 construct: purchased Carna Bio
The test can be described thus: Inhibition of EGFR[T790M/C797S/d746-750] biochemical enzymatic activity (HTRF). The conditions noted are these: EGFR T790M-C797S-Del19, 1 mM ATP, 1 h, room temperature, read-out: IC50 (nM) @T790M - C797S - Del19. The gist of the method:
as §1

Test [7] deals with T5, EGFR wild type (Homo sapiens, UniProt P00533).
T5 construct: purchased Carna Bio
The test can be described thus: Inhibition of EGFR wild type biochemical enzymatic activity (HTRF). To be noted: EGFR WT, 1 mM ATP, 1 h, room temperature, read-out: IC50 (nM) @WT. Summed up: as §1

Test [8] relates to Ba/F3 cells expressing EGFR mutations. In words: Cell proliferation assay, Ba/F3 cells expressing EGFR mutations (CellTiter-Glo, 72 hours). The class given is cell-based. To be noted: Mus musculus, BaF3, 72 h, CellTiter-Glo. Summed up: as §2
Test [9] has as its target T6, EGFR Exon19Del (Homo sapiens, UniProt P00533, DEL746-750).
T6 construct: purchased Carna Bio
The test can be described thus: Inhibition of EGFR Exon19Del biochemical enzymatic activity (HTRF). The conditions noted are these: EGFR Del19, 1 mM ATP, 1 h, room temperature, read-out: IC50 @Del19. Summed up: as §1

Test [10] addresses T7, EGFR[T790M/C797S/L858R] (Homo sapiens, UniProt P00533, C797S/L858R/T790M).
T7 construct: purchased Carna Bio
In words: Inhibition of EGFR[T790M/C797S/L858R] biochemical enzymatic activity (HTRF). The conditions noted are these: EGFR T790M-C797S-L858R, 1 mM ATP, 1 h, room temperature, read-out: IC50 (nM) @T790M- C797S - L858R. Summed up: as §1

Test [11] has as its target T8, EGFR (d746-750 C797S) (Homo sapiens, UniProt P00533, C797S/DEL746-750).
T8 construct: purchased signalchem
The test can be described thus: Inhibition of EGFR (d746-750 C797S) biochemical enzymatic activity (HTRF). To be noted: EGFR Del19-C797S, 1 mM ATP, 1 h, room temperature, read-out: IC50 (nM) @Del19-C797S. Summed up:
as §1

For test [12], the target named is T9, EGFR L858R (Homo sapiens, UniProt P00533, L858R).
T9 construct: purchased Carna Bio
In words: Inhibition of EGFR L858R biochemical enzymatic activity (HTRF). The conditions noted are these: 1 mM ATP, 1 h, room temperature, read-out: IC50 (nM) @L858R. Summed up:
as §1

Setting [13] is: BaF3 cells, EGFR DEL19-C797S, read-out: DEL19-C797S/BaF3 GI50.
The mark [14] stands for this setting: BaF3 cells, EGFR DEL19-T790-C797S, read-out: DEL19-T790-C797S/BaF3 GI50.
Where [15] appears, read: BaF3 cells, EGFR L858R, read-out: L858R/BaF3 GI50.
[16] abbreviates: BaF3 cells, EGFR L858R-C797S, read-out: L858R-C797S/BaF3 GI50.
The mark [17] stands for this setting: BaF3 cells, EGFR L858R-T790-C797S, read-out: L858R-T790-C797S/BaF3 GI50.
Setting [18] is: BaF3 cells, EGFR L858R-T790M, read-out: L858R-T790M/BaF3 GI50.
[19] abbreviates: EGFR DEL19-T790M, read-out: DEL19-T790M GI50.

Where two headings read alike, the source gives them in different places.

T2 sequence (P00533 with tags, fused parts or gaps DEL746-750/T790M limits assumed): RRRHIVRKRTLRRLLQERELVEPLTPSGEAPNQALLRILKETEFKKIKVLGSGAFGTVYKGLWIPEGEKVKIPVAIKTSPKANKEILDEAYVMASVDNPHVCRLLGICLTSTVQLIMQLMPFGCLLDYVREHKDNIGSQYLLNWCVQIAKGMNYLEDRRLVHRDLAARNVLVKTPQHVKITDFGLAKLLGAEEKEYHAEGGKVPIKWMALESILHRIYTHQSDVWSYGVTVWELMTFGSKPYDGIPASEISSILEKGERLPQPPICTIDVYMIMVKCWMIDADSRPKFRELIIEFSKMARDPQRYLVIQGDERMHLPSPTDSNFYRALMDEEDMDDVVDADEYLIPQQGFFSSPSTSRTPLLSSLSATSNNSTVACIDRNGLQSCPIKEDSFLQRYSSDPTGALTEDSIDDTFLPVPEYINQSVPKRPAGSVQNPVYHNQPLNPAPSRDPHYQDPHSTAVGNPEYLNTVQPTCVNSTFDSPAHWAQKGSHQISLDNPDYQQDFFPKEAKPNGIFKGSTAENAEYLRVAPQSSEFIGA
T4 sequence (P00533 with tags, fused parts or gaps DEL746-750/T790M/C797S limits assumed): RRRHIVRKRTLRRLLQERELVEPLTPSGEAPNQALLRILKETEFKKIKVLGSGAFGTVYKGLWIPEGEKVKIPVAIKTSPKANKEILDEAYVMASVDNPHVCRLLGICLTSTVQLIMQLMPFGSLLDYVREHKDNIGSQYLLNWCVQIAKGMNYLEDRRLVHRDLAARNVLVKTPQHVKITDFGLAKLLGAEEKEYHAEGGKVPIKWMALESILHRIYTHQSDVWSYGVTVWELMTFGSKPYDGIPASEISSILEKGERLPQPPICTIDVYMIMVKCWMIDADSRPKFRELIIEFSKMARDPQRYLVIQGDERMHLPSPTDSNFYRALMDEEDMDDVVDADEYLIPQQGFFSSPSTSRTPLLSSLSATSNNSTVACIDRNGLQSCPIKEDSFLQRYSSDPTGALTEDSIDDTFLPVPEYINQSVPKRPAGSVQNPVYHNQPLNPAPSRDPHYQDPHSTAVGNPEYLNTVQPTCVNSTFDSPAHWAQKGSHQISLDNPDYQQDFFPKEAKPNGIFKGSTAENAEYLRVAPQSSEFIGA
T8 sequence (P00533 with tags, fused parts or gaps DEL746-750/C797S limits assumed): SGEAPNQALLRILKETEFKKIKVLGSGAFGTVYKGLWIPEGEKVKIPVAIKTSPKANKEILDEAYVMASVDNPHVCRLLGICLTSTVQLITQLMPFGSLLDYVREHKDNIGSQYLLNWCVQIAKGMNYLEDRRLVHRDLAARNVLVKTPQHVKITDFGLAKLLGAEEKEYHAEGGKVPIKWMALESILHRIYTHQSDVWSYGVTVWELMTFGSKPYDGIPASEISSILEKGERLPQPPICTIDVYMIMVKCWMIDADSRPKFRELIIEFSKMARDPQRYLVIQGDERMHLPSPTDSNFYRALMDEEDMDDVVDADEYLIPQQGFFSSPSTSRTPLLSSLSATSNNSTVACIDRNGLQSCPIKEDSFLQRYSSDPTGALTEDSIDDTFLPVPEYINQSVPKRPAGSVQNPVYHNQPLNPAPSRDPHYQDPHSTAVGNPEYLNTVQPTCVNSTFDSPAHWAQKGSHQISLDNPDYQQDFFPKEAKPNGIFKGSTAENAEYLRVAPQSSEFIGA
T6 sequence (P00533 with tags, fused parts or gaps DEL746-750 limits assumed): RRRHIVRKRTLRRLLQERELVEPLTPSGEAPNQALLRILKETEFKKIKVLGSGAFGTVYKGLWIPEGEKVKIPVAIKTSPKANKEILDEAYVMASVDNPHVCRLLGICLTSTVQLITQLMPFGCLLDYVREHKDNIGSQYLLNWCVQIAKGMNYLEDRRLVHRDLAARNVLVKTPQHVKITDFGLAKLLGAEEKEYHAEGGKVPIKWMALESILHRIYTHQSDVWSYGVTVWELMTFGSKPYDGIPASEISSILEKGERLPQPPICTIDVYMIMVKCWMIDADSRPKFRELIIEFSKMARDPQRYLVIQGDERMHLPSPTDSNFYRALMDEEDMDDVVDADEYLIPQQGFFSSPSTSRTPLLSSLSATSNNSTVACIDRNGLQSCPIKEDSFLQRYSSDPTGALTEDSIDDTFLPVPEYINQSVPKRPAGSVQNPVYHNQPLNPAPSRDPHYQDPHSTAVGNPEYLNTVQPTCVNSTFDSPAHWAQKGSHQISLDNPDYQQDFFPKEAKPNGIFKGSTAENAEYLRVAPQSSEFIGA
T7 sequence (P00533 25-1210 T790M/C797S/L858R): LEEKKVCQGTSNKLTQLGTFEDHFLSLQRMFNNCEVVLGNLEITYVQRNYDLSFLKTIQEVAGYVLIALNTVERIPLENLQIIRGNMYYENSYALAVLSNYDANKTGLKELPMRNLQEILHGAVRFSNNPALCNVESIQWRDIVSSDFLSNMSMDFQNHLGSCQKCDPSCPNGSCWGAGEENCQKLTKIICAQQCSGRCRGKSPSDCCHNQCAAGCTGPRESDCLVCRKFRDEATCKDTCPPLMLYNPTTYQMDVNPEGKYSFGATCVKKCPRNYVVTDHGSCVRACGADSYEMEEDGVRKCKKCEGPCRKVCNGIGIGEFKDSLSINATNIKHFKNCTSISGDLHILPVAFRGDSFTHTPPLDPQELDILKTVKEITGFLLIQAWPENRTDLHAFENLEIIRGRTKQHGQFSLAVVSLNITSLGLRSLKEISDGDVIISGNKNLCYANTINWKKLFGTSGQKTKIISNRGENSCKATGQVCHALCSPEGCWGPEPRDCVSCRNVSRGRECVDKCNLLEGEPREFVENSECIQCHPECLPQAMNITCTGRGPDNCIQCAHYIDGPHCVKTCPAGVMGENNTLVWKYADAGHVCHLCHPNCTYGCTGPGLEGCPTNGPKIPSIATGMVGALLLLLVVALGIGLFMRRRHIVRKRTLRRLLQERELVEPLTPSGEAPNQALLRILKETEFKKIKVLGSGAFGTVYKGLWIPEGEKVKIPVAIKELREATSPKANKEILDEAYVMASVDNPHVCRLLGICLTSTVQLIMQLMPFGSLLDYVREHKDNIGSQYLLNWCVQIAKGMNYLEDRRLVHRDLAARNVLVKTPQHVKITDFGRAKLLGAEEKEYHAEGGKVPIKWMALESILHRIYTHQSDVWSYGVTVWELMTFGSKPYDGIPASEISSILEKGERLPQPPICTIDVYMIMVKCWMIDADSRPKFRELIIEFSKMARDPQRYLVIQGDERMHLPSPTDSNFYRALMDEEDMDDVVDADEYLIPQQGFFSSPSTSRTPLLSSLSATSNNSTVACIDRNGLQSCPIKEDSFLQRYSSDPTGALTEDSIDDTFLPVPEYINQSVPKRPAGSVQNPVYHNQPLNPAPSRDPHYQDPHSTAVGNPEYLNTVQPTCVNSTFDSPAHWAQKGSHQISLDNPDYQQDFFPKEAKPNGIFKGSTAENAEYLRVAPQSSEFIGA

Turning to `CCN1CCN(c2ccc3nc4n(c3c2)C[C@H](C)CCCOc2c(cnn2C)-c2cc(cn(C)c2=O)C(=O)N4)CC1` [Example A49], the IC50 in test [1] came to 8.1 nM; in [3], 6 nM; in [5], 16 nM; in [6] it was 4.9 nM; in test [7], 694 nM; in test [9], 5.5 nM. Further, the results for the IC50 in test [10], in [11] and in test [12] were 5.1 nM, 2.8 nM and 45 nM, respectively. The GI50 in [2] stood at 12 nM; in [4], 251 nM; in test [8] (setting [13]), 2 nM; in [8] (setting [14]), 12 nM; in test [8] (setting [15]), 5.7 nM; in [8] (setting [16]) it was 7 nM. The figures for the GI50 in test [8] (setting [17]), in [8] (setting [18]) and in test [8] (setting [19]) were 5.3 nM, 72 nM and 18 nM, respectively.
In the case of `CC(C)N1CCN(c2ccc3nc4n(c3c2)C[C@H](C)CCCOc2c(cnn2C)-c2cc(cn(C)c2=O)C(=O)N4)CC1` [Example A50], the IC50 in [1] was determined as 6.7 nM; in test [3], 3.8 nM; in [5] it was 7.4 nM; in test [6] it was 4 nM; in [7] it was 124 nM; in test [9], 2.4 nM. The IC50 amounted to 4.8 nM in test [10], 1.8 nM in test [11] and 15 nM in test [12]. The GI50 in test [2] came out at 6.3 nM; in test [4] it was 126 nM; in test [8] (setting [13]) it was 1 nM; in [8] (setting [14]), 5.3 nM; in test [8] (setting [15]) it was 2.7 nM; in [8] (setting [16]), 2.4 nM. The GI50 in test [8] (setting [17]) is 1.9 nM; in test [8] (setting [18]), 9.5 nM; in test [8] (setting [19]), 7.5 nM.
As for `C[C@@H]1CCCOc2c(cnn2C)-c2cc(cn(C)c2=O)C(=O)Nc2nc3ccc(N4CCC(N(C)C)C(F)(F)C4)cc3n2C1` (stereo partly drawn) [Example A51], the IC50 is 33 nM in test [1]; 12 nM in test [3]; 31 nM in test [5]; 12 nM in [6]; 1830 nM in test [7]; 13 nM in test [9]. In addition, the values for the IC50 in [10], in [11] and in test [12] were 24 nM, 4.7 nM and 94 nM, respectively. Also, the GI50 in test [2] worked out at 62 nM; in test [4], 1040 nM; in test [8] (setting [13]), 7.6 nM; in [8] (setting [14]) it was 35 nM; in test [8] (setting [15]) it was 46 nM; in test [8] (setting [16]), 38 nM. Moreover, the figures for the GI50 in test [8] (setting [17]), in test [8] (setting [18]) and in test [8] (setting [19]) were 36 nM, 65 nM and 65 nM, respectively.
As for `C[C@@H]1CCCOc2c(cnn2C)-c2cc(cn(C)c2=O)C(=O)Nc2nc3ccc(N4CCC5(CC4)CCN5C)cc3n2C1` [Example A52], the IC50 in test [1] was 6.6 nM; in test [3], 3.5 nM; in test [5], 4.7 nM; in test [6] it was 3.4 nM; in test [7], 54 nM; in test [9], 1.3 nM. Besides, the half-maximal inhibitory concentration (IC50) amounted to 3.9 nM in [10], 1.4 nM in test [11] and 6.3 nM in test [12]. The GI50 in test [2] came out at 15.4 nM; in test [4], 480 nM; in [8] (setting [13]), 1.3 nM; in test [8] (setting [14]), 6.3 nM; in test [8] (setting [15]) it was 8.1 nM; in test [8] (setting [16]), 8.4 nM. Also, the GI50 in [8] (setting [17]) was determined as 9.6 nM; in test [8] (setting [18]), 13.1 nM; in test [8] (setting [19]) it was 9.6 nM.
On to `C[C@@H]1CCCOc2c(cnn2C)-c2cc(cn(C)c2=O)C(=O)Nc2nc3ccc(N4CCN(CC(F)(F)F)CC4)cc3n2C1` [Example A53], for which the IC50 in test [1] was 70 nM; in test [3] it was 12 nM; in [5], 135 nM; in test [6] it was 13 nM; in [7], over 5000 nM; in test [9] it was 15 nM. Also, the IC50 in test [10] is 21 nM; in test [11], 7.2 nM; in test [12], 462 nM. Further, the GI50 in test [2] worked out at 51 nM; in test [4] it was 639 nM; in test [8] (setting [13]), 7.4 nM; in test [8] (setting [14]), 27 nM; in test [8] (setting [15]), 28 nM; in test [8] (setting [16]), 34 nM. Moreover, the GI50 was 35 nM in [8] (setting [17]), 51 nM in [8] (setting [18]) and 49 nM in test [8] (setting [19]).

The values above are taken from patent US20260365670A1, “EGFR INHIBITORS AND USES THEREOF” (DIZAL (JIANGSU) PHARMACEUTICAL CO., LTD., priority 2022, published 2026).
